Columns and labels:
CARP gene [1] = assay: CARP gene expression in primary neonatal rat cardiomyocytes, TaqMan quantification; type: cell-based; settings: serum-removed medium, added to 10 nM, 100 nM or 1000 nM, at maximum
CARP gene [2] = assay: CARP gene expression in H9c2 cells, TaqMan PCR; type: cell-based, rat; settings: serum-free DMEM, 10 nM or 100 nM, 4 hours and 8 hours, at maximum
Method: H9c2 cell is a cell line derived from rat cardiomyocytes and was purchased from ATCC. The cells were incubated in DMEM medium supplemented with 10% calf serum. After recovery of cells using trypsin, the cells were inoculated on a 12-well plate in 100000 cells/well, followed by incubation in a 10% calf serum-containing DMEM medium for 12 hours. Thereafter, the medium was exchanged with a fresh serum-free DMEM medium, to which norepinephrine was supplemented in 10 nM or 100 nM, and the CARP gene expression level was quantitatively determined by TaqMan PCR with passage of 4 hours and 8 hours. Also, the copy number of […] gene (G3PDH) was quantitatively determined in a similar manner, and the copy number of CARP gene calculated was corrected by G3PDH. […] According to this system, the CARP gene expression can be quantitatively determined in response to various hypertrophic stimuli or in the apoptosis induction stage, and thus the system can be used for screening a CARP gene expression regulator. Moreover, by performing reporter gene assay using a promoter of the CARP gene, a low variation rate can be changed to a high variation rate to achieve high sensitization, thus enabling to high throughput screening.

SMILES	increase of expression of the CARP gene (CARP gene [1])	increase of expression level of CARP gene (corrected by G3PDH) (CARP gene [2]) [fold]
CC[C@H](C)[C@H](NC(=O)[C@H](CC(=O)O)NC(=O)[C@H](CC(C)C)NC(=O)[C@H](Cc1c[nH]cn1)NC(=O)[C@@H]1CSSC[C@H](N)C(=O)N[C@@H](CO)C(=O)N[C@H]2CSSC[C@H](NC(=O)[C@H](CCC(=O)O)NC(=O)[C@H](CCCCN)NC(=O)[C@H](CC(=O)O)NC(=O)[C@H](CCSC)NC(=O)[C@H](CC(C)C)NC(=O)[C@H](CO)NC(=O)[C@H](CO)NC2=O)C(=O)N[C@@H](C(C)C)C(=O)N[C@@H](Cc2ccc(O)cc2)C(=O)N[C@@H](Cc2ccccc2)C(=O)N1)C(=O)N[C@H](C(=O)N[C@@H](Cc1c[nH]c2ccccc12)C(=O)O)[C@@H](C)CC [endothelin]	about 3 times	–
NC[C@H](O)c1ccc(O)c(O)c1 [norepinephrine]	about 3 times	~2

Source: patent US20030108951A1, “Use of diseases-associated gene” (priority 2000, published 2003)
